{"source": "patent US11464840B2", "about": "“Universal non-classical MHC I vaccines: HLA-E-restricted antigenic peptides as universal vaccines to treat allergy, inflammation, autoimmune and infectious diseases, and cancers” (priority 2019, dated 2022)", "molecules": {"B1": {"name": "biotinylated HLA-A2 leader peptide (SEQ ID NO: 50, …) (peptide)", "peptide": "NPRKVTAYL", "modifications": "also: biotinylated, position not given here"}}, "key": {"HLA-E": {"system": "HLA-E", "assay": "Surface HLA-E expression in immature MoDC cells (FACS)", "type": "cell-based, human", "settings": "100 nM SR11237, 100 nM Bexarotene or Interferon-β 1,000 U, 4 days", "experimental": "FIG. 5. […] MoDCs were then collected and stained with fluorescence-conjugated antibody; APC-conjugated anti-CD83 (Biolegend) and PE-conjugated HLA-E (Biolegend) followed by fixation with 2% paraformaldehyde. Phenotype and HLA-E expression of MoDCs were performed by using a FACS, LRSII flow cytometry and the data were processed by using the Flowjo software."}, "HLA-G [1]": {"system": "HLA-G", "assay": "Surface HLA-G expression in immature MoDC cells (FACS)", "type": "cell-based, human", "settings": "100 nM SR11237, 100 nM Bexarotene or Interferon-β 1,000 U, 4 days"}, "HLA-G [2]": {"system": "HLA-G", "assay": "Surface HLA-G expression of CD8 T cells co-cultured with peptide-pulsed MoDCs (FACS)", "type": "cell-based, human", "settings": "immature and mature MoDC pulsed with A2 peptides of IgE epitope, SR11237 100 nmol/L, co-culture 5 days", "experimental": "FIG. 7. Modulation of HLA-G by RXR agonist. Surface HLA-G expression of CD8 T cells was observed induced by RXRα agonist, SR11237 (100 nmol/L)-treated immature (A) and mature (B) MoDCs in presence of A2 mix peptides (Biomatik). MoDCs isolated from A2 type of PBMCs, were cultured in 10% FBS RPMI with 200 U/ml IL-4 and 100 U/ml GM-CSF for 5 days as immature MoDCs and then proceeded for maturation with addition of cytokines cocktail containing TNFα (10 ng/ml), PGE2 (1 μg/ml), IL-6 (150 ng/ml) and IL-1β (5 ng/ml) (Biolegend) for another two days. Both mature and immature MoDC were incubated with SR11237 for 2 days and pulsed with A2 peptides of IgE epitope for 4 hr. Then MoDCs were co-cultured in anti-CD3 (10 μg/ml) coated plate for 5 days with T cells isolated from PBMCs by adhering PBMC to 100×20 mm plate and collecting suspended cells. Cells were then collected and stained with Alex Fluor 488-conjugated human CD8 and PE-Cy 7-conjugated human HLA G followed by fixation with 2% paraformaldehyde. Phenotype and HLA G expression of T cells were performed by using a FACS, LRSII flow cytometry, data were processed as describe above."}, "Derlin-1 mRNA [3]": {"system": "Derlin-1 mRNA", "assay": "Derlin-1 mRNA knockdown by siRNA in B721.221 cells (qPCR, ΔΔCt)", "type": "cell-based, human", "settings": "6 hours", "experimental": "(§1) Table 1: Summary of Derlin-1 Knockdowns with Various siRNAs. Cells transfected in 12 well plate at 60%-80% confluency. one ul Viromer blue was used per 1 ml final volume. Cells were lysed via centrifugation and resuspended in TRI reagent at time points of either 6 h, 24 h, and 48 h. Lysates were split for both protein verification and qPCR. Knockdowns are estimated using the ΔΔCt method. […] Anti-Derlin-1 siRNA was designed using MITs website (sirna.wi.mit.edu) and siRNA design software (dharmacon.horizondiscovery.com/rnai/sirna). SiRNA were chosen based on the criteria that they would bind no more than 15 nucleotides on off-target mRNA and that they would be capable of knockdown for all four of the Derlin-1 mRNA isoforms. Additionally, siRNAs with 40-60% GC content, no more than 3 identical nucleotides in a row, and 3′ UU overhangs were used. The first siRNA (SEQ ID NO: 65, 5′-[…]-3′) was purchased from TriLink Biotechnologies and the second (SEQ ID NO: 66, 5′-[…]-3′) was purchased from Horizon Discovery. A third, modified siRNA with sequence 5′-SEQ ID NO: 67, O′me/G/O′me/[…]-3′ and DNA bases on the 1st and 8th nucleotide of the antisense strand was also designed and purchased from Horizontal Discovery. Scramble siRNAs were purchased from Horizontal Discovery (D-001810-10-05, ON-TARGET plus Non-targeting Pool). […]"}, "Derlin-1 mRNA [4]": {"system": "Derlin-1 mRNA", "assay": "Derlin-1 mRNA knockdown by siRNA in monocyte-derived dendritic cells (qPCR, ΔΔCt)", "type": "cell-based, human", "settings": "for Derlin-1 mRNA knockdown (KD): MODC", "experimental": "Table 1: Summary of Derlin-1 Knockdowns with Various siRNAs. Cells transfected in 12 well plate at 60%-80% confluency. one ul Viromer blue was used per 1 ml final volume. Cells were lysed via centrifugation and resuspended in TRI reagent at time points of either 6 h, 24 h, and 48 h. Lysates were split for both protein verification and qPCR. Knockdowns are estimated using the ΔΔCt method. […] Anti-Derlin-1 siRNA was designed using MITs website (sirna.wi.mit.edu) and siRNA design software (dharmacon.horizondiscovery.com/rnai/sirna). SiRNA were chosen based on the criteria that they would bind no more than 15 nucleotides on off-target mRNA and that they would be capable of knockdown for all four of the Derlin-1 mRNA isoforms. Additionally, siRNAs with 40-60% GC content, no more than 3 identical nucleotides in a row, and 3′ UU overhangs were used. The first siRNA (SEQ ID NO: 65, 5′-[…]-3′) was purchased from TriLink Biotechnologies and the second (SEQ ID NO: 66, 5′-[…]-3′) was purchased from Horizon Discovery. A third, modified siRNA with sequence 5′-SEQ ID NO: 67, O′me/G/O′me/[…]-3′ and DNA bases on the 1st and 8th nucleotide of the antisense strand was also designed and purchased from Horizontal Discovery. Scramble siRNAs were purchased from Horizontal Discovery (D-001810-10-05, ON-TARGET plus Non-targeting Pool).\n(§2) Derlin-1 forms an integral part of the […] machinery required for transporting classical MHCI, e.g., HLA-A, -B, -C for proteasome degradation. […] In contrast, the protein band of Derlin-1 is entirely missing in Derlin-1 siRNA-treated MoDCs. Transfection of the primary cells were performed using PEI reagents (Viromer Blue vs. Viromer Red). The embodiment of the invention is three-fold. One aspect of the embodiment resides in treating APC with Derlin-1 RNA interference to prevent the generation of endogenous leader peptide as well as to cause dissociation of the HLA-E bound endogenous leader peptides so that Derlin-1-treated APC can be fully loaded with the HLA-E vaccines in the presence of the second costimulatory signal for immune induction."}, "Derlin-1": {"system": "Derlin-1", "assay": "Derlin-1 knockdown protein verification by Western blot in MoDCs", "type": "cell-based, human", "text": "FIG. 9. Derlin-1 siRNA knocked down Derlin-1 translation in dendritic cells and B and T cell tumors by western blots. (A) Comparison of two different PEI reagent. Viromer blue vs Viromer red with respect to Cy3-labeled siRNA (B) and toxicity (C). Derlin-1 Knockdown Protein Verification by Western Blot (A). Confirms the knockdown of protein levels in MoDCs by Derlin-1 siRNA #2. For Lanes 1, 2, 5, and 6, the respective knockdowns were 49%, 57%, 67%, and 72%. Scramble included at concentration of 25 nM in wells (3) and (7). Wells (4) and (8) contain RPMI medium only. Mouse Anti-Derlin-1 mAb added at concentration of 1:1000 and Goat Anti-mouse IgG1 added at 1:10,000. (B) Transfection Ability of Viromer red/blue vs Lipofectamine RNAiMax. TAP-deficient T2-cells transfected with cy3-conjugated siRNA at 10 nM using manufacturer's recommended protocol for each reagent. Cells were stained, fixed, and detected 24 hours after transfection. PE laser was used to detect cells on BD LSR II. A shift to the right indicates a more efficient transfection reagent. (C) Cytotoxicity of Viromer RED/BLUE vs Lipofectamine RNAiMax. Extracellular staining of T2 cells with Annexin V was used to determine the number of cells undergoing active apoptosis after transfection with each reagent. BV421 laser was used to detect cells on BD LSR II. Cells were stained, fixed, and detected 24 hours after transfection.\nas §2"}, "Derlin-1 mRNA [5]": {"system": "Derlin-1 mRNA", "assay": "Derlin-1 mRNA knockdown by siRNA in T2 cells (qPCR, ΔΔCt)", "type": "cell-based, human", "settings": "for Derlin-1 mRNA knockdown (KD): 6 Hours", "experimental": "as §1"}, "the three HLA-E preps [6]": {"target": "the three HLA-E preps", "assay": "ELISA: renatured complex captured on anti-HLA-E coated plate, bound biotinylated peptide detected with HRP-avidin; peptide at 0.1 µg/ml"}, "the three HLA-E preps [7]": {"target": "the three HLA-E preps", "assay": "ELISA: renatured complex captured on anti-HLA-E coated plate, bound biotinylated peptide detected with HRP-avidin; peptide at 1.0 µg/ml"}}, "note": "Where “and” joins values, the source holds several entries; their conditions need not be identical. Equal entries are not always repeated. Ends that are not written are not given here."}
{"molecule": "CC1(C)CCC(C)(C)c2cc(C3(c4ccc(C(=O)O)cc4)OCCO3)ccc21", "note": "[SR11237, reference compound]", "values": [{"measurement": "HLA-E expression of immature MoDC cells", "setting": "HLA-E", "result": "dramatically induced"}, {"measurement": "HLA-G expression of immature MoDC cells", "setting": "HLA-G [1]", "result": "little or no effect"}, {"measurement": "HLA G expression in CD8+ T cells", "setting": "HLA-G [2]", "result": "no further increase"}]}
{"molecule": "5′-GGACUUGGGAGGAAGAAAUUU-3′ (listed as RNA, chemistry not given here; listed as Homo sapiens) [Derlin siRNA #2]", "values": [{"measurement": "Derlin-1 mRNA knockdown (KD)", "setting": "Derlin-1 mRNA [3]; B721.221, 5 nM siRNA", "result": 52, "unit": "%"}, {"measurement": "Derlin-1 mRNA knockdown (KD)", "setting": "Derlin-1 mRNA [3]; B721.221, 10 nM siRNA", "result": 50, "unit": "%"}, {"measurement": "Derlin-1 mRNA knockdown (KD)", "setting": "Derlin-1 mRNA [4]; 25 nM siRNA, Day 1", "result": 49, "unit": "%"}, {"measurement": "Derlin-1 mRNA knockdown (KD)", "setting": "Derlin-1 mRNA [4]; 25 nM siRNA, Day 2", "result": 67, "unit": "%"}, {"measurement": "Derlin-1 mRNA knockdown (KD)", "setting": "Derlin-1 mRNA [4]; 50 nM siRNA, Day 1", "result": 57, "unit": "%"}, {"measurement": "Derlin-1 mRNA knockdown (KD)", "setting": "Derlin-1 mRNA [4]; 50 nM siRNA, Day 2", "result": 72, "unit": "%"}, {"measurement": "effectiveness in reducing Derlin-1 mRNA levels, compared among siRNAs", "setting": "Derlin-1 mRNA [4]; monocyte-derived dendritic cells", "result": "most effective"}, {"measurement": "Derlin-1 knockdown, FIG. 9 Western blot", "setting": "Derlin-1; Lane 1", "result": 49, "unit": "%"}, {"measurement": "Derlin-1 knockdown, FIG. 9 Western blot", "setting": "Derlin-1; Lane 2", "result": 57, "unit": "%"}, {"measurement": "Derlin-1 knockdown, FIG. 9 Western blot", "setting": "Derlin-1; Lane 5", "result": 67, "unit": "%"}, {"measurement": "Derlin-1 knockdown, FIG. 9 Western blot", "setting": "Derlin-1; Lane 6", "result": 72, "unit": "%"}, {"measurement": "Derlin-1 mRNA knockdown (KD)", "setting": "Derlin-1 mRNA [5]; T2, 2.5 nM siRNA", "result": 62, "unit": "%"}, {"measurement": "Derlin-1 mRNA knockdown (KD)", "setting": "Derlin-1 mRNA [5]; T2, 5 nM siRNA", "result": 43, "unit": "%"}, {"measurement": "Derlin-1 mRNA knockdown (KD)", "setting": "Derlin-1 mRNA [5]; T2, 10 nM siRNA", "result": 34, "unit": "%"}, {"measurement": "effectiveness in reducing Derlin-1 mRNA levels, compared among siRNAs", "setting": "Derlin-1 mRNA [5]; T2 cells", "result": "most effective"}]}
{"molecule": "B1", "values": [{"measurement": "OD", "setting": "the three HLA-E preps [6]", "result": 0.02, "unit": "OD"}, {"measurement": "OD", "setting": "the three HLA-E preps [7]", "result": "0.2 OD and > 0.3 OD"}, {"measurement": "fold increment of OD (against the 0.02 OD at 0.1 µg/ml peptide)", "setting": "the three HLA-E preps [7]", "result": "10 fold and 15 fold"}]}
